{"source": "patent US20240360194A1", "about": "“New Peptides as Potent and Selective GIP Receptor Agonists” (Sanofi, priority 2021, published 2024)", "key": {"[1]": {"test": "Solubility assessment (UHPLC-UV of supernatant, target 10 mg/ml)", "format": "physicochemical", "conditions": "pH 7.4, Soluble amount", "protocol": "Prior to the solubility measurement of a peptide batch, its purity was determined through UHPLC/MS.\nTherefore, solutions from solid samples were prepared in a buffer system with a concentration of 10 mg/ml compound based on the previously determined % purity: • Solubility buffer system A) 100 mM phosphate buffer pH 7.4 • Solubility buffer system B) 8 mM phosphate buffer pH 7.4, 14 mg/ml propylene glycol, 5.5 mg/ml phenol • Solubility buffer system C) 100 mM phosphate buffer pH 7.4, 2.7 mg/ml m-cresol\nUHPLC-UV was performed after 1 h of gentle agitation and storage at 5° C. overnight (24 h) from the supernatant, which was obtained after 15 min of centrifugation at 2500 RCF (relative centrifugal acceleration).\nThe different UV extinction coefficients of sample and reference peptide were calculated based on the different amino acid sequences and considered in the concentration calculation.\nThe analytical method used was Analytical UHPLC Method A.\nPeptide samples were prepared in solubility buffer system A or C and solubility was assessed as described in Methods."}, "[2]": {"target": "human GLP-1 receptor (hGLP-1R) (Homo sapiens, UniProt P43220)", "sequence (P43220 24-463)": "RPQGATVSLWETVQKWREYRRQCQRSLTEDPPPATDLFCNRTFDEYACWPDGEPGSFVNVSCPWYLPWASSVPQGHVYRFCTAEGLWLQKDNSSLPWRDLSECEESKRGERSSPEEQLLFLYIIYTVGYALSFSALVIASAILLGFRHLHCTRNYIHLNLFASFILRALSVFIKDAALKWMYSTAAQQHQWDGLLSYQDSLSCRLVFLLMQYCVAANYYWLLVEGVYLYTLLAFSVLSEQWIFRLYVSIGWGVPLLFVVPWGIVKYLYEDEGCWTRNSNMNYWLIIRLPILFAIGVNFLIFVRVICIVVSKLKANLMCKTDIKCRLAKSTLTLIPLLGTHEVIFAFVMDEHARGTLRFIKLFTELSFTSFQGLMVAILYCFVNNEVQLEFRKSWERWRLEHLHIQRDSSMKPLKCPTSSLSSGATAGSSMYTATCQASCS", "test": "In vitro cellular cAMP assay for GLP-1 receptor efficacy (HEK-293 cell line over-expressing receptor)", "format": "cell-based", "conditions": "HEK-293, 0.1% BSA"}, "human GIP receptor": {"target": "T1, human GIP receptor (Homo sapiens, UniProt P48546)", "T1 construct": "human adipocytes endogenously expressing the human GIP receptor; host or cells: human preadipocytes (Lonza) differentiated to adipocytes", "T1 sequence (P48546 22-466)": "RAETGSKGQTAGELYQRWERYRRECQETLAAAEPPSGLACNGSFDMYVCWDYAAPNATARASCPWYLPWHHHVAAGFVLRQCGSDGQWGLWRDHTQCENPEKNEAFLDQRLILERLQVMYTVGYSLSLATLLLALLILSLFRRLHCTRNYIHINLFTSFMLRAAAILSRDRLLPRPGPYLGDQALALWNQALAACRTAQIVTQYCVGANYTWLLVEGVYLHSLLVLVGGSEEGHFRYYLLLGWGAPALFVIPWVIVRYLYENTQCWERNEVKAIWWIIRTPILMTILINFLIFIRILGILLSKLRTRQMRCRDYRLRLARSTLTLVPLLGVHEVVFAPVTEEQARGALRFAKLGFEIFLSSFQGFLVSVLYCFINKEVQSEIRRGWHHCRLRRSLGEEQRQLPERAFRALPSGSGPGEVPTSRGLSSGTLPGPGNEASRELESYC", "test": "In vitro cellular cAMP assay for GIP receptor efficacy (human adipocytes)", "format": "cell-based", "protocol": "For this, one vial of human preadipocytes (˜10^6 cells; Lonza) was thawed in a T-75 cell culture dish. The cells were cultivated at 37° C., 5% CO2, 95% humidity in Preadipocyte Growth Medium with Supplement Mix from Promo Cell.\nAfter 3 days, the cells were washed with PBS and 1.5 ml Trypsin, incubated for 4 min, then resuspended in medium, centrifugated for 10 min @ 300 rcf RT, resuspended again and distributed to four T-75 cell culture dishes. Again, the cells were cultivated at 37° C., 5% CO2, 95% humidity.\nAfter 5 days, the cells were washed with PBS and 1.5 ml Trypsin, incubated for 4 min, then resuspended in medium, centrifugated for 10 min @ 300 rcf RT, resuspended again and sawn in T-75 dishes (2.5×10^6 cells per dish) in 15 ml Differentiation medium each.\nThe differentiation medium had the following composition: DMEM (Gibco), Ham's F10 (Gibco), 15 mM HEPES (Gibco), 3% FCS (PAA), 33 μM biotin (Sigma-Aldrich), 17 μM Pantothenate (Sigma-Aldrich), 0.1 μM human insulin (Sigma-Aldrich), 1 μM dexamethason (Sigma-Aldrich), 0.1 μM PPARgamma agonist (#R2408, Sigma-Aldrich), 0.6×Anti-Anti (#15240, ThermoFisher), 200 μM IBMX (AppliChem), and 0.01 μM L-thyroxine (Sigma-Aldrich).\nAfter 6 days of differentiation, 5000 cells per well were dispensed on a 96-well plate (#CLS3694 from Corning®, Sigma-Aldrich). For measurement of cAMP generation, 25 μL of test compound was added to each well of the 96-well plate, followed by incubation for 30 min at room temperature.\nThe cAMP generated following test compound stimulation was determined using a kit from Cisbio Corp. based on HTRF (Homogenous Time Resolved Fluorescence). The cAMP assay was performed according to manufacturer's instructions (Cisbio).\nThe cAMP content of cells was determined using a kit from Cisbio Corp. based on HTRF (Homogenous Time Resolved Fluorescence).\nAfter addition of HTRF reagents diluted in lysis buffer (kit components), the plates were incubated for 1 h, followed by measurement of the fluorescence ratio at 665/620 nm."}, "[3]": {"target": "T2, human GIP receptor (hGIPR) (Homo sapiens, UniProt P48546)", "T2 sequence (P48546 22-466)": "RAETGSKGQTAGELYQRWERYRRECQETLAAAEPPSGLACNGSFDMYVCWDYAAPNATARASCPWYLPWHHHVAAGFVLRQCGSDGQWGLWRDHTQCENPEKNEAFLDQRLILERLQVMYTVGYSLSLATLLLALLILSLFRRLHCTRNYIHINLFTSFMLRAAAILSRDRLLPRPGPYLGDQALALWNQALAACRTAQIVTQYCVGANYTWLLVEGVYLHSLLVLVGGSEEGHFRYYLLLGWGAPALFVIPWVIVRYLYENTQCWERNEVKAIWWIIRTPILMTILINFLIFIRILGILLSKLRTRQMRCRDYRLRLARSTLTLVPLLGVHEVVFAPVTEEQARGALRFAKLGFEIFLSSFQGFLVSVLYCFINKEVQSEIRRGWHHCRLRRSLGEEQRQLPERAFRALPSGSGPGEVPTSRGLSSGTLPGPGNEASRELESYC", "test": "Binding assay, displacement of [125I]GIP from HEK-293 membranes over-expressing GIPR (SPA)", "conditions": "[125I]GIP displacement", "protocol": "(1) Preparation of Membranes from HEK-293 Cells Over-Expressing GIPR or GLP-1R\nHEK-293 cells recombinantly over-expressing GIPR or GLP-1R were grown to 50% confluency, washed with warm 1×PBS (Gibco) and detached in HEPES/EDTA-buffer (100 mM HEPES pH 7.5, 5 mM EDTA). Cells were harvested by centrifugation at 4° C. and 3000×g and the pellets were stored at −80° C. until further processing.\nAfter thawing on ice, pellets were resuspended in HEPES/EDTA-buffer and homogenized on ice for 1 min using Ultra-Turray T25. After subsequent sonification the cell debris was removed by centrifugation at 1000×g and 4° C. Supernatants were then ultra-centrifuged at 100000×g and 4° C. under vacuum for 30 min. Pellets were resuspended in HEPES/EDTA/NaCl-buffer (20 mM HEPES, 1 mM EDTA, 150 mM NaCl; add 1 Complete Mini Protease inhibitor cocktail to 10 ml buffer) and protein content was determined via BCA-Protein assay.\n(2) Measurement of Binding Activity of Test Compounds to Human GIPR or GLP-1R"}}, "note": "Numbered stars: 1 amine (or outer) side, 2 acyl side, 3 side chain; on linkers, the order of the positions; unused ones are H or OH. Square brackets hold non-standard residues; d marks the D form. Side chains are listed from the residue outwards. Peptide text beside a SMILES is read from it. * marks the point of attachment. C18 diacid = O=C(O)CCCCCCCCCCCCCCCCC(=O)*; γGlu = O=C(O)[C@H](CCC(=O)[*:2])N[*:1]; AEEA = NCCOCCOCC(=O)O; Aib = CC(C)(N)C(=O)O"}
{"smiles": "CC[C@H](C)[C@H](NC(=O)[C@H](Cc1ccccc1)NC(=O)[C@H](CCC(=O)O)NC(=O)C(C)(C)NC(=O)[C@H](CCC(N)=O)NC(=O)[C@H](CCCCNC(=O)COCCOCCNC(=O)COCCOCCNC(=O)CC[C@H](NC(=O)CCCCCCCCCCCCCCCCC(=O)O)C(=O)O)NC(=O)[C@H](CCC(N)=O)NC(=O)[C@H](CCC(=O)O)NC(=O)[C@H](CCC(=O)O)NC(=O)[C@H](CC(C)C)NC(=O)C(C)(C)NC(=O)[C@@H](NC(=O)[C@H](CO)NC(=O)[C@H](CC(C)C)NC(=O)[C@H](CC(=O)O)NC(=O)[C@H](CO)NC(=O)[C@@H](NC(=O)[C@H](Cc1ccccc1)NC(=O)[C@@H](NC(=O)CNC(=O)[C@H](CCC(=O)O)NC(=O)C(C)(C)NC(=O)[C@@H](N)Cc1ccc(O)cc1)[C@@H](C)O)[C@@H](C)CC)[C@@H](C)CC)C(=O)N[C@@H](CCC(=O)O)C(=O)N[C@@H](Cc1c[nH]c2ccccc12)C(=O)N[C@@H](CC(C)C)C(=O)N[C@@H](CC(C)C)C(=O)N[C@@H](C)C(=O)N[C@@H](CCC(N)=O)C(=O)NCC(=O)N1CCC[C@H]1C(=O)N[C@@H](CO)C(=O)N[C@@H](CO)C(=O)NCC(=O)N[C@@H](C)C(=O)N1CCC[C@H]1C(=O)N1CCC[C@H]1C(=O)N1CCC[C@H]1C(=O)N[C@@H](CO)C(N)=O", "note": "[SEQ ID NO: 36, H2N-Y-Aib-E-G-T-F-I-S-D-L-S-I-Aib-L-E-E-Q-K[{AEEA}2-gGlu-C18OH]-Q-Aib-E-F-I-E-W-L-L-A-Q-G-P-S-S-G-A-P-P-P-S-NH2] (H-Y[Aib]EGTFISDLSI[Aib]LEEQK([AEEA-AEEA-γGlu-C18 diacid])Q[Aib]EFIEWLLAQGPSSGAPPPS-NH2)", "values": [{"measurement": "solubility at 24 h", "setting": "[1]", "value": "> 10.7", "unit": "mg/mL"}, {"measurement": "EC50", "setting": "[2]", "value": "> 10", "unit": "nM"}, {"measurement": "EC50", "setting": "human GIP receptor; read-out: hGIPR EC50", "value": 0.3, "unit": "nM"}, {"measurement": "Emax", "setting": "human GIP receptor; read-out: hGIPR Emax", "value": 104, "unit": "%"}, {"measurement": "IC50", "setting": "[3]", "value": 0.2, "unit": "nM"}]}
